Test results taken from patent US20260070917A1, “CYCLIN DEPENDENT KINASE DEGRADERS AND METHODS OF USE THEREOF” (Differentiated Therapeutics Inc, priority 2023, published 2026).
Read-outs that look alike come from different tables or passages of the source.

Assays:
Assay type in all cases: cell-based
[1] = molecular target: T1, CDK9 (Homo sapiens, UniProt P50750); assay: HiBit Assay Protocol for CDK9 (HIBIT protein quantification, degradation); conditions: HEK293-CDK9-Hibit cells, compound treatment for 6 hours; for Dmax: read-out: CDK9 HIBIT Protein Quantification Maximum
T1 construct: host or cells: HEK293-CDK9-Hibit
T1 sequence (P50750 whole entry): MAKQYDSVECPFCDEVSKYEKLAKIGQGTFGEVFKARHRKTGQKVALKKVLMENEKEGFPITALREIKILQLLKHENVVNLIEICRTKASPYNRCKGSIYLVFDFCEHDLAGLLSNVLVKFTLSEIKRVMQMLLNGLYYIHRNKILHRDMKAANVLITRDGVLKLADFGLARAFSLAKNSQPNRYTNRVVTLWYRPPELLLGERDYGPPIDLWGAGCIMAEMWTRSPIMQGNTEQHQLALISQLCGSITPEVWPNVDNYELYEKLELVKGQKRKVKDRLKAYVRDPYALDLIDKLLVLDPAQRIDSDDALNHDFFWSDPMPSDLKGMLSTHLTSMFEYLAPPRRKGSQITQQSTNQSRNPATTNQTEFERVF
Method in brief: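 Degradation read-out: luminescence after lytic HiBiT/LgBiT detection in HEK293-CDK9-HiBiT cells exposed 6 h to 10-point, 3-fold compound dilutions. Signal scaled between 0.1% DMSO-treated cells and medium alone; DC50 fitted from the curve.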

[2] = molecular target: T2, CCNE1 (Homo sapiens, UniProt P24864); assay: HiBit Assay Protocol for CCNE1 (HIBIT protein quantification, degradation); conditions: HEK293-CCNE1-Hibit cells, compound treatment for 6 hours
T2 construct: host or cells: HEK293-CCNE1-Hibit
T2 sequence (P24864 whole entry): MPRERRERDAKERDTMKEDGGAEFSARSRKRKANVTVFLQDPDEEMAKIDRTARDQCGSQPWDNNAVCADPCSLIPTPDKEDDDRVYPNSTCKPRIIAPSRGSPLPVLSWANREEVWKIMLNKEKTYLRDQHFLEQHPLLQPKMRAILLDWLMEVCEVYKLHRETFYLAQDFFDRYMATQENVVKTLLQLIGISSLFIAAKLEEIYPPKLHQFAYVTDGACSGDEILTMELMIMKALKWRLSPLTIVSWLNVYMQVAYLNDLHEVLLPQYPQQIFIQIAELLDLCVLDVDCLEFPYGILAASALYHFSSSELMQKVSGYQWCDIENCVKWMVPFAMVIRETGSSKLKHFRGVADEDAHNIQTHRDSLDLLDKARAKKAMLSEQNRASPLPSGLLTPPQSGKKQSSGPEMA
Method in brief: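 Degradation readout: lytic Nano-Glo HiBiT luminescence after 6 h exposure of HEK293-CCNE1-HiBiT cells to 10-point, 3-fold serial dilutions. Signal was scaled between medium-only and DMSO-treated wells, and DC50 came from curve fits.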

[3] = molecular target: T3, CDK2 (Homo sapiens, UniProt P24941); assay: HiBit Assay Protocol for CDK2 (HIBIT protein quantification, degradation); conditions: HEK293-CDK2-Hibit cells, compound treatment for 6 hours; for DC50: ABS DC50
T3 construct: host or cells: HEK293-CDK2-Hibit
Method in brief: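 DC50 comes from a fitted curve of remaining CDK2-HiBiT luminescence, referenced to DMSO-treated cells and medium-only wells. HEK293-CDK2-HiBiT cells, plated the previous night, received compounds in a 10-point, 3-fold series for 6 h before lysis with LgBiT-containing Nano-Glo HiBiT reagent.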

| SMILES | Dmax ([1]; 6 h) [%] | CCNE1 HIBIT Protein Quantification Maximum [2] [%] | CDK2 HIBIT Protein Quantification Maximum [3] [%] | DC50 [3] [nM] | Dmax [1] [%] | DC50 ([1]; ABS DC50) [nM] |
| --- | --- | --- | --- | --- | --- | --- |
| O=C1CCC(N2Cc3cc(N4CCN(Cc5cccc(S(=O)(=O)N6CCC(Nc7ncc8c(n7)N([C@@H]7CCC[C@@H](O)C7)C(=O)C87CC7)CC6)c5)CC4)c(F)cc3C2=O)C(=O)N1 (stereo partly drawn) [Compound 121, 3-(6-fluoro-5-(4-(3-((4-((7′-((1R,3R)-3-hydroxycyclohexyl)-6′-oxo-6′,7′-dihydrospiro [cyclopropane-1,5′-pyrrolo[2,3-d]pyrimidin]-2′-yl)amino)piperidin-1-yl)sulfonyl)benzyl)piperazin-1-yl)-1-oxoisoindolin-2-yl)piperidine-2,6-dione] | 12 | 44 | 79 | 47 |  |  |
| O=C1CCC(N2Cc3cc(N4CCN(CC5CCN(c6cccc(S(=O)(=O)N7CCC(Nc8ncc9c(n8)N([C@@H]8CCC[C@@H](O)C8)C(=O)C98CC8)CC7)c6)CC5)CC4)ccc3C2=O)C(=O)N1 (stereo partly drawn) [Compound 122, 3-{5-[4-({1-[3-(4-{7′-[(1R,3R)-3-hydroxycyclohexyl]-6′-oxospiro[cyclopropane-1,5′-pyrrolo [2,3-d]pyrimidin]-2′-ylamino}piperidin-1-ylsulfonyl)phenyl]piperidin-4-yl}methyl)piperazin-1-yl]-1-oxo-3H-isoindol-2-yl}piperidine-2,6-dione] |  | 25 | 79 | 7 | 22 |  |
| O=C1CCC(N2Cc3cc(C4CN(Cc5cccc(S(=O)(=O)N6CCC(Nc7ncc8c(n7)N([C@@H]7CCC[C@@H](O)C7)C(=O)C87CC7)CC6)c5)C4)ccc3C2=O)C(=O)N1 (stereo partly shown) [Compound 123] | 8 | 47 | 52 | 92 |  |  |
| O=C1CCC(N2Cc3cc(N4CCC(CN5CCN(c6cccc(S(=O)(=O)c7ccc(Nc8ncc9c(n8)N([C@@H]8CCC[C@@H](O)C8)C(=O)C98CC8)cc7)c6)CC5)CC4)ccc3C2=O)C(=O)N1 (stereo partly drawn) [Compound 124, 3-{5-[4-({4-[3-(4-{7′-[(1R,3R)-3-hydroxycyclohexyl]-6′-oxospiro [cyclopropane-1,5′-pyrrolo[2,3-d]pyrimidin]-2′-ylamino}benzenesulfonyl)phenyl]piperazin-1-yl}methyl)piperidin-1-yl]-1-oxo-3H-isoindol-2-yl}piperidine-2,6-dione] |  | 48 | 61 | 6 | 57 | 73.6 |
| O=C1CCC(N2Cc3cc(N4CCC(N5CC(Oc6cccc(S(=O)(=O)c7ccc(Nc8ncc9c(n8)N([C@@H]8CCC[C@@H](O)C8)C(=O)C98CC8)cc7)c6)C5)CC4)ccc3C2=O)C(=O)N1 (stereo partly shown) [Compound 127] | 49 | 46 | 69 | 6 |  |  |
| Cn1c(=O)n(C2CCC(=O)NC2=O)c2cccc(C3CCN(CC4CCN(S(=O)(=O)c5ccc(Nc6ncc7c(n6)N([C@@H]6CCC[C@@H](O)C6)C(=O)C76CC6)cc5)CC4)CC3)c21 (stereo partly shown) [Compound 128] | 34 | 32 | 32 |  |  |  |
| CC1CCCC1N1C(=O)C2(CC2)c2cnc(NC3CCN(S(=O)(=O)N4CCC5(CCN(C(=O)CCCc6ccc7c(c6)n(C)c(=O)n7C6CCC(=O)NC6=O)C5)C4)CC3)nc21 (stereo not shown) [Compound 129] | 17 | 18 | 51 | 42 |  |  |
